In this assay the target is 5HT3a receptor expressed in HEK-293T cells (Homo sapiens (Human), UniProt P46098). Nature of the assay: Inhibition of Ca flux activity of 5HT3 in vitro assay. It counts as cell-based. The following applies: calcium flux, 5HT 216 nM, approximate values. In short, it runs like this:
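HEK-293T cells transiently transfected with human 5HT3a, loaded 1 hour at 37° C with calcium dye in HBSS/20 mM HEPES, preincubated with compound (10^−7 to 10^−10, half-log) 10 minutes at room temperature.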
On the technique in general: Calcium flux is commonly read through the fluorescence of an indicator in the cells.

The structures appear in SMILES notation. Counter-ions that a name gives are not always drawn.

5HT3a receptor expressed in HEK-293T cells, sequence (P46098 24-478): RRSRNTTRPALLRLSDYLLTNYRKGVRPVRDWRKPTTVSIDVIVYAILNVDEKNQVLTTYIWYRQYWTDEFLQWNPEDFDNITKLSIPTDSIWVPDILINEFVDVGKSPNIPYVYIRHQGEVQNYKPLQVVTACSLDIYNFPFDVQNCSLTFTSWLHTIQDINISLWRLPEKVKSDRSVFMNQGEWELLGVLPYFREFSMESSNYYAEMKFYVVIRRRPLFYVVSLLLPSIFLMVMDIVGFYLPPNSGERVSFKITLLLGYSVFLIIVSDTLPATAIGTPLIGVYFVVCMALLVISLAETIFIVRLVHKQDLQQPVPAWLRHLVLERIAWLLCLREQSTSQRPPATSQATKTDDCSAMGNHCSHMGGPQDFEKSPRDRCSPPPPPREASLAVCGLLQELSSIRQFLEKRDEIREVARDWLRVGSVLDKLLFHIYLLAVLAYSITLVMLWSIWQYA

Regarding `O=C(OC1C[C@H]2COC[C@@H](C1)N2)c1cn(-c2nccs2)c2ccccc12` (stereo partly drawn) [Example 128, (1R,5S,7S)-3-oxa-9-azabicyclo[3.3.1]nonan-7-yl 1-(thiazol-2-yl)-1H-indole-3-carboxamide, 2,2,2-trifluoroacetate], the IC50 (commonly the concentration needed to halve the response being measured) worked out at 2.16 nM.
The figure for `CN1[C@@H]2COC[C@H]1C[C@@H](NC(=O)c1cn(-c3cnccn3)c3ccccc13)C2` [Example 129, N-((1R,5S,7S)-9-methyl-3-oxa-9-azabicyclo[3.3.1]nonan-7-yl)-1-(pyrazin-2-yl)-1H-indole-3-carboxamide, di-2,2,2-trifluoroacetate] is 0.64 nM; for `CN1[C@@H]2COC[C@H]1CC(NC(=O)c1cn(-c3cnccn3)c3ccccc13)C2` (stereo partly drawn) [Example 130, N-((1R,5S,7S)-9-methyl-d3-3-oxa-9-azabicyclo[3.3.1]nonan-7-yl)-1-(pyrazin-2-yl)-1H-indole-3-carboxamide] it is 0.55 nM; for `CC(C)S(=O)(=O)n1cc(C(=O)O[C@H]2C[C@H]3COC[C@@H](C2)N3)c2ccccc21` [Example 131, (1R,5S,7S)-3-oxa-9-azabicyclo[3.3.1]nonan-7-yl 1-(isopropylsulfonyl)-1H-indole-3-carboxylate, 2,2,2-trifluoroacetate] it is 1.93 nM.
Take `CS(=O)(=O)n1cc(C(=O)O[C@H]2C[C@H]3COC[C@@H](C2)N3)c2cc(F)ccc21` [Example 132, (1R,5S,7S)-3-oxa-9-azabicyclo[3.3.1]nonan-7-yl 5-fluoro-1-(methylsulfonyl)-1H-indole-3-carboxylate, 2,2,2-trifluoroacetate]: the 50% inhibitory concentration (IC50) worked out at 2.3 nM.
In the case of `CCS(=O)(=O)n1cc(C(=O)OC2C[C@H]3COC[C@@H](C2)N3)c2ccccc21` (stereo partly drawn) [Example 133, (1R,5S,7S)-3-oxa-9-azabicyclo[3.3.1]nonan-7-yl 1-(ethylsulfonyl)-1H-indole-3-carboxylate, 2,2,2-trifluoroacetate], the IC50 came out at 1.5 nM.
In the case of `O=C(OC1C[C@H]2COC[C@@H](C1)N2)c1cn(S(=O)(=O)C2CC2)c2ccccc12` (stereo partly drawn) [Example 134, (1R,5S,7S)-3-oxa-9-azabicyclo[3.3.1]nonan-7-yl 1-(cyclopropylsulfonyl)-1H-indole-3-carboxylate, 2,2,2-trifluoroacetate], the half-maximal inhibitory concentration (IC50) stood at 1.99 nM.
For `CC(C)CS(=O)(=O)n1cc(C(=O)OC2C[C@H]3COC[C@@H](C2)N3)c2ccccc21` (stereo partly drawn) [Example 135, (1R,5S,7S)-3-oxa-9-azabicyclo[3.3.1]nonan-7-yl 1-(isobutylsulfonyl)-1H-indole-3-carboxylate, 2,2,2-trifluoroacetate], the IC50 was determined as 11.7 nM.
`O=C(O[C@H]1C[C@H]2COC[C@@H](C1)N2)c1cn(-c2cccnn2)c2ccccc12` [Example 136, (1R,5S,7s)-3-oxa-9-azabicyclo[3.3.1]nonan-7-yl 1-(pyridazin-3-yl)-1H-indole-3-carboxylate, 2,2,2-trifluoroacetic acid salt]: the IC50 is 0.914 nM.
Take `O=C(OC1CC2COCC(C1)N2)c1cn(-c2cnccn2)c2ccccc12` [Example 141, (1R,5S,7s)-3-oxa-9-azabicyclo[3.3.1]nonan-7-yl 1-(pyrazin-2-yl)-1H-indole-3-carboxylate, 2,2,2-trifluoroacetic acid salt]: the IC50 turned out to be 1.12 nM.
Regarding `O=C(OC1CC2COCC(C1)N2)c1cn(-c2cnsc2)c2ccccc12` [Example 143, (1R,5S,7s)-3-oxa-9-azabicyclo[3.3.1]nonan-7-yl 1-(isothiazol-4-yl)-1H-indole-3-carboxylate, 2,2,2-trifluoroacetic acid salt], the IC50 stood at 0.415 nM.
In the case of `CN1[C@@H]2COC[C@H]1C[C@@H](NC(=O)c1cn(-c3cnsc3)c3ccccc13)C2` [Example 144, 1-(isothiazol-4-yl)-N-((1R,5S,7s)-9-methyl-3-oxa-9-azabicyclo[3.3.1]nonan-7-yl)-1H-indole-3-carboxamide, 2,2,2-trifluoroacetic acid salt], the concentration for half-maximal inhibition (IC50) was 0.61 nM.
On to `CN1[C@@H]2COC[C@H]1C[C@@H](NC(=O)c1cn(-c3nccs3)c3ncccc13)C2` [Example 146, N-((1R,5S,7s)-9-methyl-3-oxa-9-azabicyclo[3.3.1]nonan-7-yl)-1-(thiazol-2-yl)-1H-pyrrolo[2,3-b]pyridine-3-carboxamide, 2,2,2-trifluoroacetic acid salt], for which the half-maximal inhibitory concentration (IC50) turned out to be 0.702 nM.
`CN1[C@@H]2COC[C@H]1C[C@@H](NC(=O)c1cn(-c3cscn3)c3ncccc13)C2` [Example 147, N-((1R,5S,7s)-9-methyl-3-oxa-9-azabicyclo[3.3.1]nonan-7-yl)-1-(thiazol-4-yl)-1H-pyrrolo[2,3-b]pyridine-3-carboxamide, 2,2,2-trifluoroacetic acid salt]: the IC50 was determined as 0.4 nM.
In the case of `CN1C2COCC1CC(NC(=O)c1cn(-c3cncs3)c3ncccc13)C2` [Example 148, N-((1R,5S,7s)-9-methyl-3-oxa-9-azabicyclo[3.3.1]nonan-7-yl)-1-(thiazol-5-yl)-1H-pyrrolo[2,3-b]pyridine-3-carboxamide, 2,2,2-trifluoroacetic acid salt] it was 0.4 nM.
In the case of `CN1C2COCC1CC(NC(=O)c1cn(-c3ccsn3)c3ccccc13)C2` [Example 153, 1-(isothiazol-3-yl)-N-((1R,5S,7s)-9-methyl-3-oxa-9-azabicyclo[3.3.1]nonan-7-yl)-1H-indole-3-carboxamide, 2,2,2-trifluoroacetic acid salt] it was 0.87 nM.
The figure for `CN1[C@@H]2COC[C@H]1C[C@@H](NC(=O)c1cn(-c3cncn3C)c3ccccc13)C2` [Example 154, 1-(1-methyl-1H-imidazol-5-yl)-N-((1R,5S,7s)-9-methyl-3-oxa-9-azabicyclo[3.3.1]nonan-7-yl)-1H-indole-3-carboxamide] is 0.328 nM.
Consider `CN1C2COCC1CC(NC(=O)c1cn(-c3ccns3)c3ccccc13)C2` [Example 158, 1-(isothiazol-5-yl)-N-((1R,5S,7s)-9-methyl-3-oxa-9-azabicyclo[3.3.1]nonan-7-yl)-1H-indole-3-carboxamide, 2,2,2-trifluoroacetic acid salt], for which the 50% inhibitory concentration (IC50) was 1.36 nM.
Regarding `CN1C2COCC1CC(NC(=O)c1cn(CC#N)c3ccccc13)C2` [Example 159, 1-(cyanomethyl)-N-((1R,5S,7s)-9-methyl-3-oxa-9-azabicyclo[3.3.1]nonan-7-yl)-1H-indole-3-carboxamide, 2,2,2-trifluoroacetic acid salt], the IC50 amounted to 0.298 nM.
With `CN1C2COCC1CC(OC(=O)c1cn(CCF)c3ccc(C#N)cc13)C2` [Example 160, (1R,5S,7s)-9-methyl-3-oxa-9-azabicyclo[3.3.1]nonan-7-yl 5-cyano-1-(2-fluoroethyl)-1H-indole-3-carboxylate, 2,2,2-trifluoroacetic acid salt], the IC50 stood at 0.746 nM.
In the case of `CN1[C@@H]2COC[C@H]1C[C@@H](OC(=O)c1cn(-c3ccc(F)nn3)c3ccc(C#N)cc13)C2` [Example 161, 1R,5S,7s)-9-methyl-3-oxa-9-azabicyclo[3.3.1]nonan-7-yl 5-cyano-1-(6-fluoropyridazin-3-yl)-1H-indole-3-carboxylate], the IC50 was greater than 1000 nM.
Take `CN1C2COCC1CC(NC(=O)c1cn(-c3nccs3)c3ncc(F)cc13)C2` [Example 162, 5-fluoro-N-((1R,5S,7s)-9-methyl-3-oxa-9-azabicyclo[3.3.1]nonan-7-yl)-1-(thiazol-2-yl)-1H-pyrrolo[2,3-b]pyridine-3-carboxamide, 2,2,2-trifluoroacetic acid salt]: the half-maximal inhibitory concentration (IC50) came to 1.81 nM.
As to `CN1C2COCC1CC(NC(=O)c1cn(-c3cscn3)c3ncc(F)cc13)C2` [Example 163, 5-fluoro-N-((1R,5S,7s)-9-methyl-3-oxa-9-azabicyclo[3.3.1]nonan-7-yl)-1-(thiazol-4-yl)-1H-pyrrolo[2,3-b]pyridine-3-carboxamide, 2,2,2-trifluoroacetic acid salt], the IC50 worked out at 1.81 nM.
In the case of `CN1C2COCC1CC(NC(=O)c1cn(-c3cncs3)c3ncc(F)cc13)C2` [Example 164, 5-fluoro-N-((1R,5S,7s)-9-methyl-3-oxa-9-azabicyclo[3.3.1]nonan-7-yl)-1-(thiazol-5-yl)-1H-pyrrolo[2,3-b]pyridine-3-carboxamide, 2,2,2-trifluoroacetic acid salt] it was 1.18 nM.
With `CN1C2COCC1CC(NC(=O)c1nn(-c3cncs3)c3ccccc13)C2` [Example 165, N-((1R,5S,7s)-9-methyl-3-oxa-9-azabicyclo[3.3.1]nonan-7-yl)-1-(thiazol-5-yl)-1H-indazole-3-carboxamide, 2,2,2-trifluoroacetic acid salt], the half-maximal inhibitory concentration (IC50) was 1.53 nM.
`Cn1ccc(-n2cc(C(=O)O[C@H]3C[C@H]4COC[C@@H](C3)N4)c3ccccc32)cc1=O` [Example 168, 1R,5S,7s)-3-oxa-9-azabicyclo[3.3.1]nonan-7-yl 1-(1-methyl-2-oxo-1,2-dihydropyridin-4-yl)-1H-indole-3-carboxylate, 2,2,2-trifluoroacetic acid salt]: the IC50 was determined as 1.17 nM.
On to `CN1C2COCC1CC(OC(=O)c1cn(-c3ccc(O)nn3)c3ccccc13)C2` [Example 169, (1R,5S,7s)-9-methyl-3-oxa-9-azabicyclo[3.3.1]nonan-7-yl 1-(6-hydroxypyridazin-3-yl)-1H-indole-3-carboxylate, 2,2,2-trifluoroacetic acid salt], for which the half-inhibitory concentration (IC50) was 0.598 nM.
Turning to `N#Cc1ccccc1-n1cc(C(=O)O[C@H]2C[C@H]3COC[C@@H](C2)N3)c2ccccc21` [Example 171, (1R,5S,7s)-3-oxa-9-azabicyclo[3.3.1]nonan-7-yl 1-(2-cyanophenyl)-1H-indole-3-carboxylate, 2,2,2-trifluoroacetic acid salt], the concentration for half-maximal inhibition (IC50) was found to be 1.11 nM.
`N#Cc1cccc(-n2cc(C(=O)OC3CC4COCC(C3)N4)c3ccccc32)c1` [Example 172, (1R,5S,7s)-3-oxa-9-azabicyclo[3.3.1]nonan-7-yl 1-(3-cyanophenyl)-1H-indole-3-carboxylate, 2,2,2-trifluoroacetic acid salt]: the IC50 is 2.89 nM.

The values above are taken from US9303045B2, “5-HT3 receptor antagonists” (Takeda Pharmaceutical Company Limited, priority 2013, dated 2016).
